According to ChEMBL document CHEMBL4346660, “Cryptolepine and aromathecin based mimics as potent G-quadruplex-binding, DNA-cleavage and anticancer agents: Design, synthesis and DNA targeting-induced apoptosis” (Eur J Med Chem, 2019):
Active and inactive are the calls of the source. The rule behind the calls is not given here.

Experiments:
NCI-H460 = assay: Antiproliferative activity against human NCI-H460 cells assessed as reduction in cell viability incubated for 48 hrs by MTT assay; assay type: functional, cell-based; conditions: NCI-H460, 48 h
MGC-803 [1] = assay: Induction of apoptosis in human MGC803 cells assessed as increase in Bak levels at 0.5 to 2.5 uM after 24 hrs by Western blot analysis; assay type: functional, cell-based
HepG2 = assay: Antiproliferative activity against human HepG2 cells assessed as reduction in cell viability incubated for 48 hrs by MTT assay; assay type: functional, cell-based; conditions: HepG2, 48 h
MGC-803 [2] = assay: Cell cycle arrest in human MGC803 cells assessed as increase in p27 expression at 0.5 to 2.5 uM incubated for 24 hrs by Western blot analysis; assay type: functional, cell-based
Quadruplex DNA [3] = assay: Binding affinity to human HTG21 G-quadruplex DNA at 10 uM incubated for 5 mins by CD spectroscopy; assay type: nucleic-acid assay
Quadruplex DNA [4] = assay: Binding affinity to human c-Kit-1 G-quadruplex DNA assessed as Stern-Volmer quenching constant by fluorometric titration assay; assay type: nucleic-acid assay
MGC-803 [5] = assay: Induction of mitochondrial membrane depolarization in human MGC803 cells at 0.5 uM incubated for 24 hrs by JC-1 dye-based flow cytometric analysis (Rvb 3.37%); assay type: functional
MGC-803 [6] = assay: Cell cycle arrest in human MGC803 cells assessed as accumulation of cells at G1 phase at 1 uM incubated for 48 hrs by propidium iodide staining-based flow cytometry (reference value: 53.96%); assay type: functional
[7] = target: T1, DNA topoisomerase I (Bos taurus) (UniProt F1MN93); assay: Inhibition of calf thymus topoisomerase1-mediated relaxation of supercoiled pBR322 DNA at 5 uM measured after 30 mins by ethidium bromide staining based agarose gel electrophoresis
T1 sequence (whole entry): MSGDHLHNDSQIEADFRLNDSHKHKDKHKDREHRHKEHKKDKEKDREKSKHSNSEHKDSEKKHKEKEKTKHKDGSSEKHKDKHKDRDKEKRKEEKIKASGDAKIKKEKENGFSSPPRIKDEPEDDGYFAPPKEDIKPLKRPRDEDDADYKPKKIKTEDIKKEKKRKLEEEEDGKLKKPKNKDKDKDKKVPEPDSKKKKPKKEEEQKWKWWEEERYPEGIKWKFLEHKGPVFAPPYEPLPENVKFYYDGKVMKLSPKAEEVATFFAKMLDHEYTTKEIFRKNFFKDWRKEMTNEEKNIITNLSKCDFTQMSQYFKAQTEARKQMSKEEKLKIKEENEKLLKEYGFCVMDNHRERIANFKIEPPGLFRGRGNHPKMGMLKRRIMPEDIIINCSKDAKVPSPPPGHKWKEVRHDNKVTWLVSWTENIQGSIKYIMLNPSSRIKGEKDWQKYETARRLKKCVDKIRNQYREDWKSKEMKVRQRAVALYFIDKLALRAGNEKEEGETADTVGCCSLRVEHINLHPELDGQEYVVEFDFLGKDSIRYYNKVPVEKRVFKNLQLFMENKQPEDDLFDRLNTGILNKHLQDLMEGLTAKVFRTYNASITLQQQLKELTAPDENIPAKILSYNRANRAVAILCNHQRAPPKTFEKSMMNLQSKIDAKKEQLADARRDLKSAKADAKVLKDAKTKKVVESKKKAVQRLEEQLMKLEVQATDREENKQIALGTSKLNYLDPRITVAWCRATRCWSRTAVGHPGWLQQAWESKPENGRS

MGC-803 [8] = assay: Induction of mitochondrial membrane depolarization in human MGC803 cells at 1 uM incubated for 24 hrs by JC-1 dye-based flow cytometric analysis (Rvb 3.37%); assay type: functional
MGC-803 [9] = assay: Induction of DNA damage in human MGC803 cells assessed as increase in gamma-H2AX expression at 2.5 uM after 24 hrs by Western blot analysis; assay type: functional, cell-based
MGC-803 [10] = assay: Cell cycle arrest in human MGC803 cells assessed as accumulation of cells at G2/M phase incubated for 48 hrs by propidium iodide staining-based flow cytometry; assay type: functional
MGC-803 [11] = assay: Cell cycle arrest in human MGC803 cells assessed as accumulation of cells at S phase at 2.5 uM incubated for 48 hrs by propidium iodide staining based flow cytometry (reference value: 32.97%); assay type: functional
T-24 = assay: Antiproliferative activity against human T24 cells assessed as reduction in cell viability incubated for 48 hrs by MTT assay; assay type: functional, cell-based; conditions: T-24, 48 h
MGC-803 [12] = assay: Induction of apoptosis in human MGC803 cells assessed as late apoptotic cells at 1 uM incubated for 24 hrs by Annexin V-FITC/propidium iodide staining based flow cytometry (reference value: 0.69 +/- 0.05 %); assay type: functional
Calf thymus DNA [13] = assay: Binding affinity to calf thymus DNA assessed as hyperchromic effect at 10:1 compound to DNA ratio incubated for 5 mins by UV-Vis spectroscopy; assay type: nucleic-acid assay; conditions: Bos taurus
MGC-803 [14] = assay: Induction of apoptosis in human MGC803 cells assessed as increase in Apaf-1 expression at 0.5 to 2.5 uM after 24 hrs by Western blot analysis; assay type: functional, cell-based
MGC-803 [15] = assay: Induction of mitochondrial membrane depolarization in human MGC803 cells at 2.5 uM incubated for 24 hrs by JC-1 dye-based flow cytometric analysis (Rvb 3.37%); assay type: functional
Calf thymus DNA [16] = assay: Binding affinity to calf thymus DNA at 10 uM incubated for 5 mins by CD spectroscopy; assay type: nucleic-acid assay; conditions: Bos taurus
MGC-803 [17] = assay: Induction of apoptosis in human MGC803 cells assessed as late apoptotic cells at 0.5 uM incubated for 24 hrs by Annexin V-FITC/propidium iodide staining based flow cytometry (reference value: 0.69 +/- 0.05 %); assay type: functional
MGC-803 [18] = assay: Induction of apoptosis in human MGC803 cells assessed as cell shrinkage at 0.5 to 2.5 uM after 24 hrs by Hoechst 33258 staining-based fluorescence microscopic method; assay type: functional
MGC-803 [19] = assay: Induction of apoptosis in human MGC803 cells assessed as increase in Bax levels at 0.5 to 2.5 uM after 24 hrs by Western blot analysis; assay type: functional, cell-based
MGC-803 [20] = assay: Induction of apoptosis in human MGC803 cells assessed as necrotic cells at 2.5 uM incubated for 24 hrs by Annexin V-FITC/propidium iodide staining based flow cytometry (reference value: 1.81 +/- 0.09 %); assay type: functional
MGC-803 [21] = assay: Induction of apoptosis in human MGC803 cells assessed as viable cells at 1 uM incubated for 24 hrs by Annexin V-FITC/propidium iodide staining based flow cytometry (reference value: 96.53+/-2.11%); assay type: functional; conditions: MGC-803, 24 h, read-out: Activity
MGC-803 [22] = assay: Induction of apoptosis in human MGC803 cells assessed as increase in ROS generation incubated for 24 hrs by DCFH-DA dye-based flow cytometric analysis; assay type: functional, cell-based
MGC-803 [23] = assay: Induction of apoptosis in human MGC803 cells assessed as activated caspase-3 level at 2.5 uM after 24 hrs by FITC staining-based flow cytometric analysis (Rvb= 3.46%); assay type: functional
MGC-803 [24] = assay: Induction of apoptosis in human MGC803 cells assessed as viable cells at 2.5 uM incubated for 24 hrs by Annexin V-FITC/propidium iodide staining based flow cytometry (reference value: 96.53+/-2.11%); assay type: functional; conditions: MGC-803, 24 h, read-out: Activity
MGC-803 [25] = assay: Induction of apoptosis in human MGC803 cells assessed as early apoptotic cells at 1 uM incubated for 24 hrs by Annexin V-FITC/propidium iodide staining based flow cytometry (reference value: 0.97 +/- 0.10 %); assay type: functional

## CN(C)CCCNc1c2c(nc3ccc(F)cc13)-c1ccccc1C2
NCI-H460
  IC50: 1.96 µM
MGC-803 [1]
  Activity: Active
HepG2
  IC50: 1.77 µM
MGC-803 [2]
  Activity: Active
Quadruplex DNA [3]
  Activity: Active
Quadruplex DNA [4]
  Kq: 6.26 ×10⁶ No_unit
MGC-803 [5]
  Activity: 23.6%
MGC-803 [6]
  Activity: 24.11%
[7]
  inhibition: Active
MGC-803 [8]
  Activity: 89.1%
MGC-803 [9]
  Activity: Active
MGC-803 [10]
  Activity: Dose-dependent effect
MGC-803 [11]
  Activity: 59.44%
T-24
  IC50: 0.84 µM
MGC-803 [12]
  Activity: 15%
Calf thymus DNA [13]
  Activity: Active
MGC-803 [14]
  Activity: Active
MGC-803 [15]
  Activity: 97.5%
Calf thymus DNA [16]
  Activity: Active
MGC-803 [17]
  Activity: 4.15%
MGC-803 [18]
  Activity: Active
MGC-803 [19]
  Activity: Active
MGC-803 [20]
  Activity: 4.01%
MGC-803 [21]
  viability at 1 µM: 58.3%
MGC-803 [22]
  Activity: Dose-dependent effect
MGC-803 [23]
  Activity: 45.1%
MGC-803 [24]
  viability at 2.5 µM: 37.3%
MGC-803 [25]
  Activity: 22%
